According to US6429229B1, “Keto acid salts and amine derivatives, and their use for preparing medicines” (Chiesi S.A., priority 1998, dated 2002):

What was measured:
colic distension in rat [1] = experiment: Colic distension in rat (colon irritated with 1% acetic acid, balloon distension, abdominal cramps counted); type: in vivo; details: for Mean number of abdominal cramps ± standard error: 10 min colic distension, * = different from placebo at p < 0.05 (Dunnett); for Activity in the model of colic distension (in words) / Dose at/from which active in colic distension: oral route; for Activity in the model of colic distension (in words): 1 to 20 mg/kg
Excerpt: This physiopathological mechanism inspired the creation of the model of distension of the colon first irritated with 1% acetic acid, in rat. […] IIS is characterized by the presence of abdominal pain. Patients having this pathology have a lowered threshold of digestive sensitivity.
The analgesic activity was studied on the model of digestive pain in observed rat. This pain is brought about by distension of the colon with a balloon.
Male Sprague-Dawley rats of about 180 g, fasted from the day before, are used. Under light fluothane anesthesia, an intrarectal probe is introduced 5 cm into the anus and 1.5 ml of 1% acetic acid is injected. An hour and 30 minutes after irritation, a latex balloon (empty diameter 2 mm, length 1 cm) mounted on a polyethylene catheter is introduced into the colon to the site of the irritation.
The product to be tested or the vehicle (distilled water) is administered per os in a volume of 1 ml, then the rat is observed on a Petri dish.
Distension of the colon is carried out 2 hours and 20 minutes after irritation. It is effected at a fixed volume of 1.5 ml of distilled water. The colic distension gives rise to digestive pain manifested by abdominal cramps whose number reflects the intensity of the pain. The colic distension is maintained for 10 minutes in the course of which the abdominal cramps are counted.
Statistical analysis is carried out with the help of the Dunnett test which compares a same group of vehicle animals (40) to several groups of rats (six animals per group) having received the studied molecules. The threshold of significance is fixed at 5%.
The molecules are tested by the oral route at 1-10-20 mg/kg. They are dissolved in distilled water.
The vehicle used as placebo is comprised by distilled water.
Comparative tests 1 to 5 are products available commercially and are used as such, except ornithine chlorhydrate which is salted out by methods known in the literature and stored in solution in water.

somatic pain test in rat = details: doses between 300 and 1000 mg/kg by subcutaneous route in rat; cited from earlier work
writhing test in mice = details: 500 and 1000 mg/kg by intravenous route in mice; cited from earlier work
colic distension in rat [2] = details: cited from earlier work; for Activity on the model of colic distension (in words): background statement
[3] = tested on: writhing test in rat or a mouse; details: i.p. phenylbenzoquinone or 3% acetic acid; cited from earlier work

O=C(O)CCC(=O)C(=O)O [Comparison 1, α-keto-glutaric acid]
Mean number of abdominal cramps ± standard error (colic distension in rat [1]; 1 mg/kg p.o.): 17 ± 1
Mean number of abdominal cramps ± standard error (colic distension in rat [1]; 10 mg/kg p.o.): 17 ± 4
Mean number of abdominal cramps ± standard error (colic distension in rat [1]; 20 mg/kg p.o.): 22 ± 6
Activity in the model of colic distension (in words) (colic distension in rat [1]): inactive

Cl.NCCC[C@H](N)C(=O)O [Comparison 2, Ornithine, HCl]
Activity in a somatic pain test (in words) (somatic pain test in rat): active
Mean number of abdominal cramps ± standard error (colic distension in rat [1]; 1 mg/kg p.o.): 20 ± 3
Mean number of abdominal cramps ± standard error (colic distension in rat [1]; 10 mg/kg p.o.): 19 ± 6
Mean number of abdominal cramps ± standard error (colic distension in rat [1]; 20 mg/kg p.o.): 18 ± 6
Activity in the model of colic distension (in words) (colic distension in rat [1]): inactive
Activity in the writhing test (in words) (writhing test in mice): active

CCC(=O)C(=O)O [Comparison 3, α-keto-butyric acid]
Mean number of abdominal cramps ± standard error (colic distension in rat [1]; 1 mg/kg p.o.): 19 ± 2
Mean number of abdominal cramps ± standard error (colic distension in rat [1]; 10 mg/kg p.o.): 20 ± 3
Mean number of abdominal cramps ± standard error (colic distension in rat [1]; 20 mg/kg p.o.): 19 ± 3
Activity in the model of colic distension (in words) (colic distension in rat [1]): inactive

NC(=O)CC[C@H](N)C(=O)O [Comparison 4, Glutamine]
Mean number of abdominal cramps ± standard error (colic distension in rat [1]; 1 mg/kg p.o.): 21 ± 2
Dose at/from which active in colic distension (colic distension in rat [1]): 10 mg/kg
Activity in the test of colic distension (in words) (colic distension in rat [2]; 6 mg/kg by rectal route in rat (local administration on the irritated colic mucosa)): active

N=C(N)NCCC[C@H](N)C(=O)O [Comparison 5, Arginine]
Mean number of abdominal cramps ± standard error (colic distension in rat [1]; 1 mg/kg p.o.): 20 ± 6
Mean number of abdominal cramps ± standard error (colic distension in rat [1]; 10 mg/kg p.o.): 20 ± 9
Dose at/from which active in colic distension (colic distension in rat [1]): ≥ 20 mg/kg

CN1CC[C@]23c4c5ccc(O)c4O[C@H]2[C@@H](O)C=C[C@H]3[C@H]1C5 [Morphine]
Activity on the model of colic distension (in words) (colic distension in rat [2]): active

CC(=O)Oc1ccccc1C(=O)O [aspirin]
Activity on the model of colic distension (in words) (colic distension in rat [2]): inactive
Activity in the writhing test (in words) [3]: active

CC(=O)Nc1ccc(O)cc1 [paracetamol]
Activity on the model of colic distension (in words) (colic distension in rat [2]): inactive
Activity in the writhing test (in words) [3]: active

Di-arginine Keto-glutarate [Example 3]
Mean number of abdominal cramps ± standard error (colic distension in rat [1]; 1 mg/kg p.o.): 17 ± 9

Di-ornithine Keto-glutarate [Example 2]
Dose at/from which active in colic distension (colic distension in rat [1]): 1 mg/kg

Mono-ornithine Keto-butyrate [Example 6]
Dose at/from which active in colic distension (colic distension in rat [1]): ≥ 1 mg/kg

Mono-ornithine Keto-glutarate [Example 1]
Dose at/from which active in colic distension (colic distension in rat [1]): 1 mg/kg

Ornithine and Arginine Keto-glutarate [Example 4]
Mean number of abdominal cramps ± standard error (colic distension in rat [1]; 1 mg/kg p.o.): 18 ± 2

Ornithine and Glutamine Keto-glutarate [Example 5]
Dose at/from which active in colic distension (colic distension in rat [1]): ≥ 1 mg/kg
